{"source": "paper PMC12569736", "about": "(Journal of Cosmetic Dermatology, 2025)", "key": {"MNT‐1 cells": {"tested_on": "MNT‐1 cells", "assay": "Cell viability, MNT‐1", "assay_type": "cell-based, human", "settings": "MNT‐1, 72 h, up to 50 μM", "protocol": "(§1) B16‐F10, MNT‐1, and HaCaT cells (5000 cells/well) were seeded into 96‐well plates and incubated overnight. Culture medium (50 μL) containing varying concentrations of KT‐939 was added to each well, and cells were incubated for 72 h. Cell viability was assessed using the Cell Viability Assay Kit (Vazyme Biotech), following the manufacturer's instructions. Luminescence was measured using a Synergy H1 Hybrid Reader. DMSO‐treated cells served as the control, and survival rates were calculated and analyzed with GraphPad software.\n(§2) B16‐F10, MNT‐1, and HaCaT cells were incubated with different concentrations of KT‐939 for 72 h. Cell viability was assessed and normalized to the DMSO‐treated control group."}, "B16‐F10 cells": {"tested_on": "B16‐F10 cells", "assay": "Cell viability, B16‐F10", "assay_type": "cell-based, murine", "settings": "B16‐F10, 72 h, up to 50 μM", "protocol": "as §1, §2"}, "human tyrosinase (hTYR)": {"molecular_target": "T1, human tyrosinase (hTYR) (Homo sapiens, UniProt P14679)", "T1 construct": "tyrosinase enzyme solution derived from MNT‐1 cells; endogenous in cells; host or cells: MNT-1 human melanoma cell line (crude lysate supernatant)", "T1 sequence (P14679 19-529)": "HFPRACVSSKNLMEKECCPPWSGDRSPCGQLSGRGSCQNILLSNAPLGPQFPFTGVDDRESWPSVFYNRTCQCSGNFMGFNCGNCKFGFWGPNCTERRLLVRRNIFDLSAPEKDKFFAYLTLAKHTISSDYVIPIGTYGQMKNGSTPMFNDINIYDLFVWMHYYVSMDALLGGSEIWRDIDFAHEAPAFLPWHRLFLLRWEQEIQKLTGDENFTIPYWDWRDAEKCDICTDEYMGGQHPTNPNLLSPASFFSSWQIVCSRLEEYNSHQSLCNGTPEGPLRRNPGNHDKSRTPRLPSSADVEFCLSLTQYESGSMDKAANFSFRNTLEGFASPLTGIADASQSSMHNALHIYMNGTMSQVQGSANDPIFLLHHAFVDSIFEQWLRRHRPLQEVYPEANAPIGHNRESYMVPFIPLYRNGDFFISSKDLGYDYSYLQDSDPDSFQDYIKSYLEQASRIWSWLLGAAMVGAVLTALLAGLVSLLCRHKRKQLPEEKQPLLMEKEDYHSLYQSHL", "assay": "L‐DOPA oxidation assay for tyrosinase activity (MNT‐1 cell lysate)", "assay_type": "biochemical", "protocol": "The hTYR‐mediated L‐DOPA oxidation assay was performed according to Winder and Harris. MNT‐1 cells were resuspended in 0.05 M sodium phosphate buffer (pH 6.9) and sonicated for 1 min. After incubation on ice for 3–5 min, the mixture underwent a second sonication. The lysate was centrifuged at 13 000 rpm for 15 min at 4°C, and the supernatant was collected and kept on ice.\nFor the assay, 20 μL of crude enzyme solution and 80 μL sodium phosphate buffer were added to a 96‐well plate and centrifuged at 1000 rpm for 30 s. Subsequently, 2 μL of different concentrations of test compounds were added to each well, followed by centrifugation at 1000 rpm for 30 s. Finally, 100 μL L‐DOPA (final concentration 4 mM) was added to initiate the reaction. The microplate reader (Synergy H1 Hybrid Reader, BioTek) was used to monitor the reaction at 26°C, measuring absorbance at 475 nm every minute for 60 min. IC50 values were calculated using GraphPad software based on Vmax values from the kinetic curves.\nThe L‐DOPA tyrosinase assay was performed using a tyrosinase enzyme solution derived from MNT‐1 cells in 50 mM sodium phosphate buffer (pH 6.9), with a substrate (L‐DOPA) concentration of 4 mM and various concentrations of inhibitors as indicated. Data represent mean ± standard deviation of three independent experiments."}}, "data": [{"smiles": "CC1(C(=O)Nc2nc(-c3ccc(O)cc3O)cs2)COC1", "note": "[KT‐939, N‐(4‐(2,4‐Dihydroxyphenyl) Thiazol‐2‐yl)‐3‐Methyloxetane‐3‐Carboxamide]", "values": [{"measurement": "cytotoxicity (cell viability)", "setting": "MNT‐1 cells", "result": "no significant cytotoxicity"}, {"measurement": "cytotoxicity (cell viability)", "setting": "B16‐F10 cells", "result": "no significant cytotoxicity"}, {"measurement": "IC50", "setting": "human tyrosinase (hTYR); MNT‐1 lysate, L‐DOPA 4 mM, pH 6.9, read-out: IC50 against hTYR", "result": 70, "unit": "nM"}, {"measurement": "inhibition of hTYR", "setting": "human tyrosinase (hTYR); at concentrations ≥ 0.4 μM", "result": "nearly complete inhibition"}, {"measurement": "fold greater hTYR potency than 4‐butylresorcinol", "setting": "human tyrosinase (hTYR); ratio of IC50, vs 4‐butylresorcinol", "result": "~100", "unit": "fold"}, {"measurement": "fold greater hTYR potency than 377", "setting": "human tyrosinase (hTYR); ratio of IC50, vs 377", "result": "over 300 fold"}, {"measurement": "fold greater hTYR potency than Thiamidol", "setting": "human tyrosinase (hTYR); ratio of IC50, vs Thiamidol", "result": "~ 4 fold"}, {"measurement": "fold greater hTYR potency than resveratrol", "setting": "human tyrosinase (hTYR); ratio of IC50, vs resveratrol", "result": "~86", "unit": "fold"}]}]}
